Test: Acid dissociation constant (pKa) of the acid
Description: In this specification, the acid dissociation constant (pKa) of the acid is an index of acidity, and a common logarithm is employed as a reciprocal of the dissociation constant (Ka) of acid. That is, the acid dissociation constant (pKa) of the acid is obtained by measuring the dissociation constant Ka=[H3O^+] [B^−]/[BH] under a dilute aqueous solution condition and using a formula: pKa=−log Ka Incidentally, in the above formula, BH represents an organic acid and B^− represents a conjugate base of an organic acid. The measurement method of pKa is as follows: a hydrogen ion concentration is measured using a pH meter and pKa can be calculated from the concentration of the substance and the hydrogen ion concentration. Incidentally, in the case of polybasic acid, the pKa is a value calculated for the first Ka (pKa1).

Row | SMILES | pKa (dilute aqueous solution) | pKa
1 | CCCCC(=O)O [Valeric acid] | 4.6 | 
2 | O=C(O)C(O)CO (centres unmarked) [Glyceric acid] | 3.4 | 
3 | CC(C)(O)C(=O)O [2-Hydroxyisobutyric acid] | 4.37 | 
4 | O=C(O)CC(O)C(=O)O (centres unmarked) [Malic acid] |  | 3.4
5 | CC(C)CC(O)C(=O)O (centres unmarked) [Leucine acid] |  | 3.9
